Results on 21 compounds are retold here after the NIST ThermoML archive (doi:10.1016/j.jct.2008.06.008).

Where “and” joins values, the source holds several entries; their conditions need not be identical. Equal entries are not always repeated. Numbers after ± are expanded uncertainties.

This series can be described thus: molar heat capacity at constant pressure. The settings on record: 298.15 K; 101.33 kPa; Liquid; Large sample (1 g) DSC.

Consider `[2H]C([2H])([2H])C(=O)C([2H])([2H])[2H]` [(D6)-2-propanone], for which the “molar heat capacity at constant pressure” value is 134.94 ± 2.7 J/K/mol and 133.6 ± 2.7 J/K/mol.

Regarding `[2H]C([2H])([2H])S(=O)C([2H])([2H])[2H]` [(methyl sulfoxide)-d6], the “molar heat capacity at constant pressure” value was 165.76 ± 3.3 J/K/mol and 163.87 ± 3.3 J/K/mol.

Consider `[2H]C(=O)N(C([2H])([2H])[2H])C([2H])([2H])[2H]` [N,N-dimethylformamide-d7], for which the “molar heat capacity at constant pressure” value is 160.5 ± 3.2 J/K/mol and 159.47 ± 3.2 J/K/mol.

Turning to `CC(C)=O` [acetone], the “molar heat capacity at constant pressure” value is 122.74 ± 2.5 J/K/mol and 120.73 ± 2.4 J/K/mol.

As to `[2H]C([2H])([2H])C#N` [acetonitrile-d3], the “molar heat capacity at constant pressure” value is 95.74 ± 1.9 J/K/mol and 95.02 ± 1.9 J/K/mol.

Regarding `CC#N` [acetonitrile], the “molar heat capacity at constant pressure” value is 89.62 ± 1.8 J/K/mol and 88.57 ± 1.8 J/K/mol.

Consider `[2H]c1c([2H])c([2H])c([2H])c([2H])c1[2H]` [benzene-d6], for which the “molar heat capacity at constant pressure” value is 152.18 ± 3 J/K/mol and 149.82 ± 3 J/K/mol.

For `c1ccccc1` [benzene], the “molar heat capacity at constant pressure” value is 133.82 ± 2.7 J/K/mol and 132.11 ± 2.6 J/K/mol.

For `[2H]C(Cl)(Cl)Cl` [chloroform-d], the “molar heat capacity at constant pressure” value was 114.94 ± 2.3 J/K/mol and 111.98 ± 2.2 J/K/mol.

In the case of `[2H]C1([2H])C([2H])([2H])C([2H])([2H])C([2H])([2H])C([2H])([2H])C1([2H])[2H]` [cyclohexane-d12], the “molar heat capacity at constant pressure” value is 185.6 ± 3.7 J/K/mol and 182.57 ± 3.6 J/K/mol.

Take `C1CCCCC1` [cyclohexane]: the “molar heat capacity at constant pressure” value is 154.34 ± 3.1 J/K/mol and 150.73 ± 3 J/K/mol.

Turning to `[2H]C([2H])(Cl)Cl` [dichloromethane-d2], the “molar heat capacity at constant pressure” value is 103.08 ± 2.1 J/K/mol and 101.49 ± 2 J/K/mol.

As for `ClCCl` [dichloromethane], the “molar heat capacity at constant pressure” value was 97.97 ± 2 J/K/mol and 95.61 ± 1.9 J/K/mol.

As for `C[S+](C)[O-]` [dimethyl sulfoxide], the “molar heat capacity at constant pressure” value was 150.74 ± 3 J/K/mol and 149.05 ± 3 J/K/mol.

With `CN(C)C=O` [dimethylformamide], the “molar heat capacity at constant pressure” value is 145.78 ± 2.9 J/K/mol and 144.02 ± 2.9 J/K/mol.

For `[2H]C([2H])([2H])O` [methanol-d3], the “molar heat capacity at constant pressure” value was 86.07 ± 1.7 J/K/mol and 84.91 ± 1.7 J/K/mol.

As to `[2H]OC([2H])([2H])[2H]` [methanol-d4], the “molar heat capacity at constant pressure” value was 89.03 ± 1.8 J/K/mol and 87.75 ± 1.8 J/K/mol.

Regarding `CO` [methanol], the “molar heat capacity at constant pressure” value is 80.58 ± 1.6 J/K/mol and 79.07 ± 1.6 J/K/mol.

As to `[2H]c1c([2H])c([2H])c(C([2H])([2H])[2H])c([2H])c1[2H]` [toluene-d8], the “molar heat capacity at constant pressure” value was 176.77 ± 3.5 J/K/mol and 174.28 ± 3.5 J/K/mol.

Turning to `Cc1ccccc1` [toluene], the “molar heat capacity at constant pressure” value is 154.75 ± 3.1 J/K/mol and 152.53 ± 3 J/K/mol.

In the case of `ClC(Cl)Cl` [trichloromethane], the “molar heat capacity at constant pressure” value was 112.71 ± 2.2 J/K/mol and 110.74 ± 2.2 J/K/mol.
